These results are taken from US8609862B2, “Use of an adrenal hormone-modifying agent” (Novartis AG, priority 2010, dated 2013).

SMILES strings stand for the structures.

As a reminder, the IC50 is the concentration that gives 50% inhibition. Lower therefore signals higher potency.

One experiment concerns the target T1, Rat CYP11B1 (Rattus norvegicus, UniProt P15393).
T1 construct: made in house; host or cells: V79-4 cell line #259 (stably selected with geneticin and hygromycin); sonicated homogenate, 500 x g supernatant
T1 sequence (P15393 25-499): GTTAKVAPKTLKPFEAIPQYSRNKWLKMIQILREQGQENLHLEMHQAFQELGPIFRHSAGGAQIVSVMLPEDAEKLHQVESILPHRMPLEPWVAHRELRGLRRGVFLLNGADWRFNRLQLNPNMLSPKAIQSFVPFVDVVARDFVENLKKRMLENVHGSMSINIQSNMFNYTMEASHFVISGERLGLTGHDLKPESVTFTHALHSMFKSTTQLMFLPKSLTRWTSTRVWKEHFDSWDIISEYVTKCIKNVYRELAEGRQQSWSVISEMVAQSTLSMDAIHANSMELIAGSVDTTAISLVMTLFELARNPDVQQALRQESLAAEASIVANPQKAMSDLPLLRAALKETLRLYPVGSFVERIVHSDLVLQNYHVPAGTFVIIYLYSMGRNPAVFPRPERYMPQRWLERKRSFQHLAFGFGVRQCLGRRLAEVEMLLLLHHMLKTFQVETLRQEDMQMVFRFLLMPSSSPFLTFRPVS
Nature of the experiment: In vitro rat CYP11B1 assay. The format is biochemical. To be noted: V79-4 cell homogenate, 11-deoxycorticosterone to corticosterone, SPA. An excerpt: Complete EDTA-free protease inhibitor tablets were obtained from Roche Applied Science (Indianapolis, Ind.). Dulbecco's modified Eagle medium (DMEM), antibiotic, geneticin, hygromycin, and fetal bovine serum (FBS) were products of Invitrogen (Carlsbad, Calif.). NADPH Regeneration Solution A and Solution B were purchased from BD Biosciences Clontech (Palo Alto, Calif.). Anti-sheep PVT SPA beads and [1,2,6,7-^3H(N)]corticosterone were acquired from Amersham (Piscataway, N.J.) and PerkinElmer (Boston, Mass.), respectively.
For enzyme preparation, #259 cells were seeded in 150 mm dishes in double-selection medium. Following 2 days of growth, cells were washed once with PBS, scraped and collected in PBS, and centrifuged at 1,300 rpm for 6 min. […] The sonication procedure was repeated 3 more times, with a 5 min rest on ice between sonications. The sonicated material was then spun at 500×g for 4 min to remove unbroken cells. The supernatant was brought to a final glycerol concentration of 5%, flash-frozen in liquid nitrogen, and stored at −80° C.
The CYP11B1 assays were performed in 96-well U-bottom non-tissue-culture-treated plates. […] Plates were then centrifuged at 2,400 rpm for 6 min, and 50 μl of supernatant was removed for measurement of corticosterone content by scintillation proximity assay (SPA).
Measurement of corticosterone was performed using a 96-well plate format. […] Anti-sheep PVT SPA beads (50 μl) were then added to each well and incubated overnight at room temperature prior to counting in a Microbeta plate counter. The amount of corticosterone in each sample was calculated by comparing with a standard curve generated using known quantities of the hormone.
Full concentration-response curves of an inhibitor were performed at least 3 times. The IC50 values were derived using a non-linear least squares curve-fitting program from IDBS XLfit.

A further experiment has as its target T2, Human CYP11B2 (Homo sapiens, UniProt P19099).
T2 construct: host or cells: NCI-H295R human adrenocortical carcinoma cells, stimulated with 1 uM Ang II
T2 sequence (P19099 25-503): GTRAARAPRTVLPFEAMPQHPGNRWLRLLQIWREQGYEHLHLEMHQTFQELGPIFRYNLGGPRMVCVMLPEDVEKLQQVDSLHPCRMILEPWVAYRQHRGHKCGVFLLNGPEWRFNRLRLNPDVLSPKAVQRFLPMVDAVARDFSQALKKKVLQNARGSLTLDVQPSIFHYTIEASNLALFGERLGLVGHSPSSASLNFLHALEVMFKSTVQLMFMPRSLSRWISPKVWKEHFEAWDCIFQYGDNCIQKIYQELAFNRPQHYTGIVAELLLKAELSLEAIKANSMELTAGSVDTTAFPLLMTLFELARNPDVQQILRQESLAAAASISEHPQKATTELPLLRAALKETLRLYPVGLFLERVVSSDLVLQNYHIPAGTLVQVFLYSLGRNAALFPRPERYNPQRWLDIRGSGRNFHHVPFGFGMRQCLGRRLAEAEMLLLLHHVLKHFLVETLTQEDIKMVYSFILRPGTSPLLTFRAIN
The experiment is described as follows: In vitro human CYP11B2 (aldesterone) assay in NCI-H295R cells. The class given is cell-based. Conditions: 1 μM Ang II, 24 hr, aldosterone production by SPA. An excerpt:
Human adrenocortical carcinoma NCI-H295R cell line was obtained from American Type Culture Collection (Manassas, Va.). […] Anti-mouse PVT scintillation proximity assay (SPA) beads and NBS 96-well plates were obtained from GE Health Sciences (Piscataway, N.J.) and Corning (Acton, Mass.), respectively. Solid black 96-well flat bottom plates were purchased from Costar (Corning, N.Y.). Aldosterone and angiotensin (Ang II) were purchased from Sigma (St. Louis, Mo.). D-[1,2,6,7-^3H(N)]aldosterone was acquired from PerkinElmer (Boston, Mass.). Nu-serum was a product of BD Biosciences (Franklin Lakes, N.J.).
Measurement of aldosterone activity can also be performed using a 96-well plate format. […] The amount of aldosterone in each sample is calculated by comparing with a standard curve generated using known quantities of the hormone.
Inhibition of the release of certain steroids can be used as a measure of the respective enzyme inhibition by the added test compounds. […] The inhibition plot is calculated by fitting a 4-parameter logistic function to the raw data points using the least squares method. The equation of the 4-parameter logistic function is calculated as follows: Y=(d−a)/((1+(x/c)b))+a, where: a=minimum data level, b=gradient, I […], d=maximum data level, x=inhibitor concentration.

As to `N#Cc1ccc(C2CCCCc3cncn32)c(Br)c1` (racemic) [3-bromo-4-(6,7,8,9-tetrahydro-5H-imidazo[1,5-a]azepin-5-yl)benzonitrile racemate, 3-bromo-4-(6,7,8,9-tetrahydro-5H-imidazo[1,5-a]azepin-5-yl)benzonitrile], the IC50 was 1 nM against Rat CYP11B1 and 1.2 nM at Human CYP11B2.
Consider `N#Cc1ccc(C2CCCCc3cncn32)c(-c2ccc(F)cc2)c1` (single isomer, unassigned) [4′-fluoro-6-(6,7,8,9-tetrahydro-5H-imidazo[1,5-a]azepin-5-yl)biphenyl-3-carbonitrile], for which the IC50 on Rat CYP11B1 worked out at 0.3 nM; against Human CYP11B2 it was 0.4 nM.
As for `COc1ccc(CN(C)C(=O)C2(c3ccc(C#N)cc3Cl)CCc3cncn32)cc1` (stereo not drawn) [5-(2-chloro-4-cyanophenyl)-N-(4-methoxybenzyl)-N-methyl-6,7-dihydro-5H-pyrrolo[1,2-c]imidazole-5-carboxamide], the IC50 on Rat CYP11B1 is 2 nM; against Human CYP11B2, 2.7 nM.
